Experimental data reported in publication PMC11173529, “Structure–Activity Relationship Studies in a Series of Xanthine Inhibitors of SLACK Potassium Channels” (Molecules, 2024).

Molecular target: T1, WT hSLACK (Homo sapiens, UniProt Q5JUK3)
T1 construct: host or cells: CHO-K1
T1 sequence (Q5JUK3 1-1235 isoform Q5JUK3-3): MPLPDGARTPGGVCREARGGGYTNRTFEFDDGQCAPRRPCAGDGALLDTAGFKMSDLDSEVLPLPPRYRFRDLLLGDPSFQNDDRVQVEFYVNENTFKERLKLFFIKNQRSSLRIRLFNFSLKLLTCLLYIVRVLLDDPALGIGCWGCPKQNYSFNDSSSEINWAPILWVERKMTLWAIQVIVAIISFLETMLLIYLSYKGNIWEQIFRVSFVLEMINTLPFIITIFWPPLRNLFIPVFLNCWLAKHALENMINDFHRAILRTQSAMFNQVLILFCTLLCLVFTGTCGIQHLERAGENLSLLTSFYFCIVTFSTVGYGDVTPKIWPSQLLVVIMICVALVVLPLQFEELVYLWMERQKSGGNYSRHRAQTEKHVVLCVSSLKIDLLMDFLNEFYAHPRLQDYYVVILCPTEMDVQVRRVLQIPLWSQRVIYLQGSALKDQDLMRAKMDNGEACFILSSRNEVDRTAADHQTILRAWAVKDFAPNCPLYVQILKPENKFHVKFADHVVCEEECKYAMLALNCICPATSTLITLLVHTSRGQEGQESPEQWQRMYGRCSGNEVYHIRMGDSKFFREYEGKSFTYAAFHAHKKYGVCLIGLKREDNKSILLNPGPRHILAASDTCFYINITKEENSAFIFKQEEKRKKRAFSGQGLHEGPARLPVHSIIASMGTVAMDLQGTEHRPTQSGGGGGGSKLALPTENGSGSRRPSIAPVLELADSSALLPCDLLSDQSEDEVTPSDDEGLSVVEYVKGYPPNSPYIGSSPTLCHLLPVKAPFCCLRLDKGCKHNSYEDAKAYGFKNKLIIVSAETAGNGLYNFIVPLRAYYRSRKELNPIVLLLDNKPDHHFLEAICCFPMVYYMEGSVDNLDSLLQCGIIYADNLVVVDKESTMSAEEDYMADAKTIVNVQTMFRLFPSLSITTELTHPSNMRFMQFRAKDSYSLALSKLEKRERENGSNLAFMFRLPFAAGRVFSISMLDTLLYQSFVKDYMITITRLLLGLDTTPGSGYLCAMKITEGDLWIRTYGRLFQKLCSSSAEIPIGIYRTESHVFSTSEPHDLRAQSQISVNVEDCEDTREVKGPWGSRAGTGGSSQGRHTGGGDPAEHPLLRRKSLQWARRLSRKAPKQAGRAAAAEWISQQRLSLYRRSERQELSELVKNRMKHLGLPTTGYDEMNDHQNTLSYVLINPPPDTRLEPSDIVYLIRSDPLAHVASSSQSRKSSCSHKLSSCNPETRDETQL
Assay: Whole-cell automated patch-clamp (APC) in CHO cells stably expressing WT hSLACK
Type: cell-based
Conditions: for IC50: whole-cell APC, CHO cells stably expressing WT hSLACK, averages n ≥ 3, read-out: SLACK IC50; for SLACK Imax: maximum inhibition at 30 µM test compound standardized to VU0606170 (set at 100%), WT hSLACK
Method: All new analogs were tested in our APC assay using CHO cells stably expressing WT SLACK using a concentration-response format with concentrations ranging from 0.125 to 30 μM in half-log steps and a minimum of three cells (replicates) per concentration series. […] Still, there were some notable results. For example, substitution at the 4-position was largely unfavorable regardless of the nature of the substituent (21, 24, 27, 30, and 33) apart from the 4-fluoro analog 18. […] As the trifluoromethyl group is similar in electronegativity to chlorine, but larger than both methyl and chlorine, perhaps the steric bulk of the trifluoromethyl is to blame for the poor potency of these analogs. With the exception of the fluoro (16–18) and cyano (28–30) analogs, substitution at the 3-position was favorable for SLACK activity, with 3-methoxy analog 32 standing out in this set.
Stably transfected monoclonal HEK293 cell lines expressing Slick, Maxi-K α1/β3, Maxi-K α1/β4, CaV3.2, GIRK 1/2, KV2.1, KV7.2, NaV1.7, and TASK-1 were generated as previously described. Stably transfected monoclonal HEK293 cell lines expressing hERG were generated as previously described. CHO-K1 cells expressing human Slack and disease-associated human Slack mutations, G288S and A934T, were generated by transfecting a PiggyBac TRE mammalian expression vector (VectorBuilder, Chicago, IL, USA) containing KCNT1. FuGENE 6 (Promega, Madison, WI, USA) transfection reagent and protocol, together with Opti-MEM (Thermo Fisher Scientific, Walkham, MA, USA), were utilized.
Automated patch-clamp recording was performed with a SyncroPatch 768 PE system (Nanion, Munich, Germany) as previously described. Whole-cell recordings were performed at room temperature. Cells were harvested by first washing with PBS without Mg^2+ or Ca^2+ (Gibco, Billings, MT, USA) to remove cell culture media, followed by dissociation with TryPLE (Gibco, Billings, MT, USA). Cells were then resuspended and diluted to 100,000 cells/mL in external solution. External solution contained 105 mM NaCl, 4 mM KCl, 1 mM MgCl2, 5 mM CaCl2, 10 mM HEPES, and 40 mM N-Methyl-D-glucamine chloride, titrated to pH of 7.4 and osmolarity of 300 mOsm/kg; internal solution contained 70 mM NaCl, 70 mM KF, 10 mM KCl, 5 mM EGTA, and 5 mM HEPES, titrated to a pH of 7.2 and osmolarity of 295 mOsm/kg.
The APC protocol was set as follows: Cells were held at a […] of −80 mV for 100 ms, then a ramp protocol was performed from −100 mV to 80 mV at 0.4 mV/ms, followed by holding the cell at −80 mV for another 100 ms, then steps were performed at −20 mV, 0 mV, +20 mV, +40 mV, and +60 mV for 100 ms of each step. Whole-cell currents were measured at 0 mV and normalized to current after external buffer addition. […] To obtain the concentration-response relationship graphs and IC50 values, we take the median value of the last 7 current amplitude values obtained for each set of data points collected for a given concentration at a particular step.

Row | SMILES | IC50 [nM] | SLACK Imax [%]
1 | CCCCN(Cc1cccc(F)c1)c1nc2c(c(=O)n(Cc3cccc(OC)c3)c(=O)n2C)n1C [Analog 78] | 1200 | 
2 | CCCCN(Cc1ccccc1)c1nc2c(c(=O)n(Cc3ccccc3)c(=O)n2C)n1C [Analog 70] | 940 | 100
3 | CN(Cc1cccc(F)c1)c1nc2c(c(=O)n(Cc3ccccc3)c(=O)n2C)n1C [Analog 48] | 890 | 100
4 | Cn1c(N(Cc2ccccc2)CC2CC2)nc2c1c(=O)n(Cc1ccccc1)c(=O)n2C [Analog 71] | 980 | 100
5 | CCCCN(Cc1ccc(F)cc1)c1nc2c(c(=O)n(Cc3cccc(OC)c3)c(=O)n2C)n1C [Analog 80] | 700 | 
6 | COc1cccc(Cn2c(=O)c3c(nc(N(C)Cc4ccccc4)n3C)n(C)c2=O)c1 [Analog 32] | 800 | 100
7 | COc1cccc(Cn2c(=O)c3c(nc(N(Cc4cccc(F)c4)CC4CC4)n3C)n(C)c2=O)c1 [Analog 79] | 1000 | 
8 | COc1cccc(Cn2c(=O)c3c(nc(N(Cc4ccc(F)cc4)CC4CC4)n3C)n(C)c2=O)c1 [Analog 81] | 1500 | 
